Data published in US10105384B2, “Nucleic acids targeting TCTP for use in the treatment of chemo- or hormone-resistant cancers” (INSTITUT NATIONAL DE LA SANTE ET DE LA RECHERCHE MEDICALE …, priority 2010, dated 2018).
d = 2'-deoxy (DNA); r = 2'-OH (RNA)

Key:
Type in all cases: cell-based, human
LNCaP-Mock cells = assay: Crystal violet cell growth assay, LNCaP-Mock cells
Method: (§1) In brief, cells were seeded in each well of 12-well microtiter plates (30 000 to 50 000 cells per well) and allowed to attach overnight. To study the effect of TCTP downregulation on apoptosis induced by docetaxel, PC-3 cells were transiently transfected the day after seeding with 5 nM of TCTP siRNA for 48 h or 100 nM of TCTP ASO for 72 h. Cells were then treated with 50 nM of docetaxel and MTT assays were performed after 24 h. To assess the effect of TCTP downregulation on Hsp27 cytoprotection, LNCaP-Mock and -Hsp27 cells were transiently transfected the day after seeding with 5 nM of TCTP siRNA for 48 h. The down- or upregulation of TCTP effect on LNCaP and C4-2 cell viability was realized after transient transfections with 100 nM of TCTP ASO or 0.02 μg/μl of pDEST-TCTP for 72 h and 48 h respectively. Cells were then treated with 1 nM of docetaxel in serum-free media (mimics androgen withdrawal in vitro) and crystal violet assays were performed the day after. Each assay was performed in triplicate.
In order to study consequences of TCTP inhibition on cell survival after combined androgen withdrawal and docetaxel-chemotherapy treatment, cell viability of LNCaP-Mock and -Hsp27 was determined using crystal violet dye after 24 h treatment with 1 nM of docetaxel in serum-free media (mimics androgen withdrawal in vitro). […]

LNCaP-Hsp27 cells = assay: Crystal violet cell growth assay, LNCaP-Hsp27 cells
Method: as §1
To study the functional role of TCTP in CRPC, siRNA-induced inhibition of TCTP expression was used to determine whether the reduction of TCTP expression affects LNCaP-Mock and -Hsp27 cell growth after combined androgen withdrawal and docetaxel-chemotherapy treatment in vitro.
In order to study consequences of TCTP inhibition on cell survival after combined androgen withdrawal and docetaxel-chemotherapy treatment, cell viability of LNCaP-Mock and -Hsp27 was determined using crystal violet dye after 24 h treatment with 1 nM of docetaxel in serum-free media (mimics androgen withdrawal in vitro). […] After TCTP siRNA plus docetaxel in serum-free medium treatment (mimics androgen withdrawal in vitro), we found an 80% (**, P≤0.01) reduction in LNCaP-Hsp27 cell growth rate versus a 50% (**, P≤0.01) reduction in LNCaP-Mock compared to control.

TCTP = assay: ASO sequences screening: TCTP expression by western blot and/or qRT-PCR; conditions: WB and/or qRT-PCR, PC-3 cells overexpressing TCTP
Method: Western Blot analysis was performed as described previously (Rocchi et al., 2004, Cancer Res. 64:6595-602) with 1:5000 rabbit anti-Hsp27 polyclonal antibody (Assay Designs, Villeurbanne, France), 1:2000 rabbit TCTP polyclonal antibody (Abcam Inc., Cambridge, UK), 1:250 rabbit anti-MSL1v1 polyclonal antibody (Abcam Inc.), 1:500 mouse anti-ubiquitin monoclonal antibody (Santa Cruz Biotechnology Inc., Heidelberg, Germany) or 1:1000 rabbit anti-caspase-3 polyclonal antibody (Cell Signalling Technology Inc., Danvers, USA). Loading levels were normalized using 1:5000 rabbit anti-glyceraldehyde-3-phosphate dehydrogenase polyclonal (Abcam Inc.) or 1:2500 mouse anti-vinculine monoclonal antibodies (Sigma Chemical Co., St Louis, Mo., USA).
The quantitative reverse transcription polymerase chain reaction (qRT-PCR) analysis was done on a LightCycler detection system (Roche Applied Science, Meylan, France). Expression levels of 18S subunit of the ribosome gene were used as an internal control. First strand cDNA was synthesized from 1 μg of total RNA using random hexamers and expanded by reverse transcriptase according to the manufacturer's instructions (ImProm-II Reverse Transcription System, Promega, Charbonniéres-les-Bains, France), subsequently diluted 1:10 with water, and stored at −20° C. until use. TCTP and 18S polymerase chain reaction (PCR) products were detected by quantitative real time PCR (qRT-PCR) using the SYBR Premix Ex Taq (Takara Bio Inc, St Germain en Laye, France) following the manufacturer's instructions. Five microliters of diluted cDNA template were mixed with 10 μl SYBR Premix Ex Taq (including Taq polymerase, reaction buffer, MgCl2, SYBR green I dye, and deoxynucleotide triphosphate mix) and 0.4 μM forward and reverse primers, in a final volume of 20 μl. The following primers were used: TCTP forward 5′-[…]-3′ (SEQ ID NO: 8) and TCTP reverse 5′-[…]-3′; (SEQ ID NO: 9); 18S forward 5′-[…]-3′ (SEQ ID NO: 10) and 18S reverse 5′-[…]-3′ (SEQ ID NO: 11). After an initial Taq activation for 10 seconds at 95° C., Light Cycler PCR was done using 55 cycles with the following cycling conditions: 95° C. for 5 seconds, 58° C. for 7 seconds, and 72° C. for 14 seconds. Each sample was analyzed in duplicate and the experiment was repeated three times. Results were analyzed using RealQuant data analysis software (Roche, Neuilly-sur-seine, France). The results analysis was done with the 2(-Delta Delta C(T)) Method (Livak K J. et al., 2001; Methods. 25:402-8).
In order to find a sequence ASO having an inhibiting effect on TCTP expression, 30 ASO sequences have been designed 26 of which are shown in table 1. Said 30 sequences cover the TCTP mRNA (accession number NM_003295). Using BLAST program, the specificity of said sequences has been studied. Among said 30 sequences, only 15 sequences have been identified as being specific for TCPT mRNA sequence (see table 1). The effect of said ASO sequences on TCTP expression was tested by western blot analysis (WB) and/or by quantitative reverse transcription polymerase chain reaction (qRT-PCR) on PC-3 cells overexpressing TCTP. WB and qRT-PCR were performed as exposed in example 1.

[1] = siRNA 5 nM alone, compared with control
[2] = siRNA plus 1 nM docetaxel in serum-free medium, 24 h

Substance | reduction in LNCaP-Mock cell growth rate (LNCaP-Mock cells; [1]) | reduction in LNCaP-Mock cell growth rate (LNCaP-Mock cells; [2]) | cytoprotection to androgen withdrawal and docetaxel conferred by Hsp27 overexpression (LNCaP-Hsp27 cells; siRNA 5 nM) | reduction in LNCaP-Hsp27 cell growth rate (LNCaP-Hsp27 cells; [1]) | reduction in LNCaP-Hsp27 cell growth rate (LNCaP-Hsp27 cells; [2]) | ability to inhibit TCTP expression (TCTP) | best ability to inhibit specifically TCTP expression (TCTP)
5′-AACCCGUCCGCGAUCUCCCdGdG-3′ (AACCCGUCCGCGAUCUCCCGG; siRNA; sugars from the 5' end r19 d2, backbone not given here) [TCTP siRNA, from Qiagen] | 40% | 50% | reversed the cytoprotection | 50% | 80% | – | –
5′-ACCAATGAGCGAGTCATCAA-3′ (phosphorothioate backbone, further chemistry not given here) [ASO10] | – | – | – | – | – | strong ability to inhibit TCTP expression | best ability to inhibit specifically TCTP expression
